Tests used:
Type in all cases: cell-based, mouse
ASMko cultured neurons [1] = assay: MAP2 immunofluorescence of dendrites in ASMko cultured neurons; conditions: 50 μM for 1 hour
[2] = system: permeabilized ASMko neurons; assay: Lysenin staining of SM in intracellular compartments of permeabilized ASMko neurons; conditions: 1 hour at 50 μM (FIG. 9)
Procedure: Statistical significance Student's t-test, *P<0.05, n=3 independent cultures.
To determine whether SM hydrolysis induced by FAAH inhibitors was taking place not only at the cell surface, but also in intracellular compartments, we performed staining with lysenin, a worm toxin that specifically binds to SM, in permeabilized ASMko neurons non-treated or treated with anandamide, URB, PF-04457845 or JNJ for 1 hour at 50 μM.

ASMko cultured neurons [3] = assay: TUNEL assay of neuronal death in ASMko cultured neurons; conditions: 50 μM for 1 hour
Procedure: FIG. 10B is a graph showing mean±SEM percentage of apoptotic cells, measured by TUNEL assay, with respect to the positive control in which the cells were treated with H202.
The percentage of dying neurons showing DNA fragmentation was 5-8% in the treated ASMko cultures similar to the non-treated ones.

[4] = system: cultured primary hippocampal neurons from ASMko mice; assay: Sphingomyelin levels by enzymatic assay in cultured primary hippocampal neurons from ASMko mice
Text: (§1) FIGS. 5A-5D show sphingomyelin and endocannabinoid levels in cultured primary hippocampal neurons and hippocampal tissue, respectively, from ASMko and wildtype mice.
Statistical significance Student's t-test, *P<0.05, **P<0.005, n=3 independent cultures.
Statistical significance Student's t-test, **P<0.005, n=3 independent cultures.
Anandamide (AEA) is the major endogenous CB1 ligand. We therefore tested whether increased levels of anandamide affected sphingomyelin levels in cultured primary hippocampal neurons from ASMko mice. Anandamide was increased in two ways: • 1. By incubating the neuronal cultures with exogenous anandamide; and • 2. By incubating the neuronal cultures with PF-04457845, which is an inhibitor of the anandamide hydrolytic enzyme FAAH. Inhibition of FAAH causes accumulation of anandamide by inhibiting FAAH-mediated hydrolyzation of anandamide.
The following experiments were performed in three independent cultures of hippocampal neurons derived from ASMko mice. Treatments were done at 11-13 days in vitro when these cells are considered mature and functional.
To set the optimal conditions for such hydrolysis in terms of concentration and time of incubation, anandamide was added to the culture medium of mature ASMko hippocampal neurons at 0, 5, 25, 50 and 100 μM for 30 minutes or 1 hour. […] The optimal conditions for SM degradation were in a range of concentration of 25-50 μM for 1 hour. […] We therefore decided to use 25 μM anandamide for 1-hour incubation time in our next experiments.
Similar to the anandamide dose/time response experiment above, we performed another dose response experiment using URB597 (URB), an inhibitor of the anandamide-hydrolyzing enzyme FAAH, to be used as reference for the other FAAH inhibitors. The experiments were done in the presence or absence of exogenous anandamide. URB was added to the culture medium of ASMko mature neurons at 0, 5, 25 and 50 μM for 1 hour with or without □□ μM anandamide.
We next compared URB efficacy to reduce SM levels with that of other FAAH inhibitors PF-04457845 (PF) and JNJ-1661010 (JNJ).

[5] = system: wildtype cultured neurons; assay: Sphingomyelin levels in wildtype cultured neurons; conditions: wildtype (FIG. 5D)
Text: as §1
It has been shown that mGluR activation promotes 2-AG synthesis and CB1 stimulation (Maccarrone et al., Nat Neurosci 2008). We therefore sought to determine whether activation of mGluR5 with the allosteric activator CDPPB might induce sphingomyelin breakdown in ASMko neurons. […] Thus, the effect of decreased CB1 expression might be further exacerbated by decrease in endogenous endocannabinoid signaling, at least via 2-AG.

## O=C(Nc1ccccc1)N1CCN(c2nc(-c3ccccc3)ns2)CC1 [JNJ-1661010]
ASMko cultured neurons [1]
  morphology, length, appearance of dendrites (MAP2): did not alter the morphology, length or homogeneous appearance of dendrites
[2]
  SM levels in intracellular compartments (lysenin staining): variable tendency to SM reduction that was not statistically significant
ASMko cultured neurons [3]
  neuronal death as assessed by TUNEL: did not induce neuronal death
[4]; 50 μM and 1 hour (FIG. 8)
  SM hydrolysis: promoted SM hydrolysis

## N#Cc1cccc(C(=O)Nc2cc(-c3ccccc3)nn2-c2ccccc2)c1 [CDPPB, 3-Cyano-N-(1,3-diphenyl-1H-pyrazol-5-yl)benzamide]
[5]
  sphingomyelin levels: did not affect sphingomyelin levels
[4]; 15 μM, ASMko cultured neurons (FIG. 5D)
  sphingomyelin levels: significant decreases in sphingomyelin levels

## NC(=O)c1cccc(-c2cccc(OC(=O)NC3CCCCC3)c2)c1 [URB597]
ASMko cultured neurons [1]
  morphology, length, appearance of dendrites (MAP2): did not alter the morphology, length or homogeneous appearance of dendrites
[2]
  SM levels in intracellular compartments (lysenin staining): significantly reduced SM levels
ASMko cultured neurons [3]
  neuronal death as assessed by TUNEL: did not induce neuronal death
[4]; 0, 5, 25 and 50 μM for 1 hour, without exogenous anandamide (FIG. 7)
  SM levels, dose response: dose dependent reduction of SM levels
[4]; 50 μM and 1 hour (FIG. 8)
  SM hydrolysis: promoted SM hydrolysis
  efficacy to reduce SM levels compared among FAAH inhibitors: most reliable and efficient

## CCCCC/C=C\C/C=C\C/C=C\C/C=C\CCCC(=O)NCCO [anandamide]
ASMko cultured neurons [1]
  morphology, length, appearance of dendrites (MAP2): did not alter the morphology, length or homogeneous appearance of dendrites
[2]
  SM levels in intracellular compartments (lysenin staining): variable tendency to SM reduction that was not statistically significant
ASMko cultured neurons [3]
  neuronal death as assessed by TUNEL: did not induce neuronal death
[4]; 0, 5, 25, 50 and 100 μM for 30 minutes or 1 hour (FIG. 6)
  SM hydrolysis, dose and time response: induced SM hydrolysis in a dose and time dependent manner
[4]; 100 μM
  SM reduction at very high concentration: SM reduction was prevented
[4]; 1 hour
  optimal concentration for SM degradation: 25 to 50 µM
[4]; ASMko neurons, 1 hour incubation (FIG. 5A)
  sphingomyelin levels: reduced sphingomyelin levels
[4]; FAAH inhibitors at 50 μM, 1 hour
  effect of addition of exogenous anandamide on SM hydrolysis by FAAH inhibitors: did not further enhance SM hydrolysis
[4]; URB concentrations other than the lowest, 1 hour
  SM reduction with URB and anandamide versus URB alone: SM reduction was similar
[4]; lowest URB concentration, 1 hour
  effect of anandamide addition on SM reduction by URB: synergized the action of URB

## Cl.Cl.O=C(/C=C/c1ccc(/C=C/C(=O)Nc2ccc(C3=NCCN3)cc2)cc1)Nc1ccc(C2=NCCN2)cc1 [GW4869]
[4]; ASMko neurons, 1 hour (FIG. 5A)
  effect of co-incubation with the neutral sphingomyelinase inhibitor on the sphingomyelin reduction by anandamide or PF-04457845: prevented

Reference: US12485117B2, “Compositions and methods for activating signaling through the CB1 cannabinoid receptor for treating and preventing diseases and disorders characterized by abnormal cellular accumulation of sphingolipids such as sphingomyelin” (Wylder Nation Foundation, priority 2018, dated 2025)
